This test relates to adjuvant induced arthritis. Kind of test: Adjuvant arthritis model in Lewis rats. The format is in vivo, rat.

`CNC(=O)[C@H]1O[C@@H](n2cnc3c(NCc4cccc(I)c4)nc(Cl)nc32)[C@H](O)[C@@H]1O` [Cl-IB-MECA, 2-chloro-N^6-(3-iodobenzyl)-adenosine-5′-N-methyl-uronamide]: where the note is “10 μg/kg a day PO, untreated rat paws extremely swollen and red”, the appearance of paws result is on record as “normal appearing paws”. Also, for the setting “PO, from day 7 after disease induction, FIG. 4”, the “improvement of arthritis score, 10 μg a day compared with 100 μg/kg a day” value is “significantly more effective”.

The values above are taken from US7141553B2, “A3AR agonists for the treatment of inflammatory arthritis” (Can-Fite Biopharma Ltd. Israel, priority 2002, dated 2006).
